Source: ChEMBL document CHEMBL1201862, “PubChem BioAssay data set” (2004)
Calls of active or inactive are those of the source.

Experiments:
Aminopeptidase N = molecular target: T1, Aminopeptidase N (Plasmodium falciparum FcB1/Columbia, UniProt O96935); assay: P. falciparum M1AAP inhibitors, biochemical, fluorogenic H-Leu-NHMec substrate, 1536-well (AID 1445); design: species or system Plasmodium falciparum 3D7, 3D7
T1 sequence (O96935 whole entry): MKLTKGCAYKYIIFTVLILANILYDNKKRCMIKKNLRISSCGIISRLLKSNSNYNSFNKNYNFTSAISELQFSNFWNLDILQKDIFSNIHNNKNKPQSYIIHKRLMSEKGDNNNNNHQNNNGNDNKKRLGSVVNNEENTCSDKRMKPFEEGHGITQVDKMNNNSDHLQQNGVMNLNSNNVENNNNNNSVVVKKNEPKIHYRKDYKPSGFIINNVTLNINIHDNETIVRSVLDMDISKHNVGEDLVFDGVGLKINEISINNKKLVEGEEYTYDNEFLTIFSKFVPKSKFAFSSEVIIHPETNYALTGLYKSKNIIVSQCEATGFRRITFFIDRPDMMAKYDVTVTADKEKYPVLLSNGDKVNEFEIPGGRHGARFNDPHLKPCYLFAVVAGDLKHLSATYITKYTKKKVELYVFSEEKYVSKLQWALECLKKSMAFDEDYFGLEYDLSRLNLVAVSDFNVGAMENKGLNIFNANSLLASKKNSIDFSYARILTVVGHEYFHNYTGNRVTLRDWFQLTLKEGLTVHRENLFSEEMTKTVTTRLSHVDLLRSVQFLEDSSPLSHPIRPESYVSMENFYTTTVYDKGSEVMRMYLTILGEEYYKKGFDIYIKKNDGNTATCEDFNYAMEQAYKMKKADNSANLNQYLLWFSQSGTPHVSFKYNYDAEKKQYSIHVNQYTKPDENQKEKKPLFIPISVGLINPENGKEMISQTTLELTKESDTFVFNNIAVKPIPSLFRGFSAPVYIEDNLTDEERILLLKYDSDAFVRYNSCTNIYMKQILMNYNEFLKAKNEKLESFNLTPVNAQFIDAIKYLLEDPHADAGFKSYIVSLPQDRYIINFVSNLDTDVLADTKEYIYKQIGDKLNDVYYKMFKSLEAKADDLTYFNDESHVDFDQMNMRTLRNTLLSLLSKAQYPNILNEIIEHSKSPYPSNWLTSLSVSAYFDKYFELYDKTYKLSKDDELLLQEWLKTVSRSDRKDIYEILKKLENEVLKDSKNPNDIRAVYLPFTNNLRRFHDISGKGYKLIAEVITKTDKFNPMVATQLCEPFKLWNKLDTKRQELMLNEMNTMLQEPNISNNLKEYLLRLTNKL

[1] = molecular target: T2, Short transient receptor potential channel 4 (Mus musculus, UniProt Q9QUQ5); assay: mouse TRPC4 channel inhibitors, dose response, cell-based, HEK293 TRPC4/mu-opioid, Fluo-4 calcium (AID 434942); format: functional;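 note: potency of inhibitors blocking the TRPC4 calcium response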
T2 sequence (Q9QUQ5 whole entry): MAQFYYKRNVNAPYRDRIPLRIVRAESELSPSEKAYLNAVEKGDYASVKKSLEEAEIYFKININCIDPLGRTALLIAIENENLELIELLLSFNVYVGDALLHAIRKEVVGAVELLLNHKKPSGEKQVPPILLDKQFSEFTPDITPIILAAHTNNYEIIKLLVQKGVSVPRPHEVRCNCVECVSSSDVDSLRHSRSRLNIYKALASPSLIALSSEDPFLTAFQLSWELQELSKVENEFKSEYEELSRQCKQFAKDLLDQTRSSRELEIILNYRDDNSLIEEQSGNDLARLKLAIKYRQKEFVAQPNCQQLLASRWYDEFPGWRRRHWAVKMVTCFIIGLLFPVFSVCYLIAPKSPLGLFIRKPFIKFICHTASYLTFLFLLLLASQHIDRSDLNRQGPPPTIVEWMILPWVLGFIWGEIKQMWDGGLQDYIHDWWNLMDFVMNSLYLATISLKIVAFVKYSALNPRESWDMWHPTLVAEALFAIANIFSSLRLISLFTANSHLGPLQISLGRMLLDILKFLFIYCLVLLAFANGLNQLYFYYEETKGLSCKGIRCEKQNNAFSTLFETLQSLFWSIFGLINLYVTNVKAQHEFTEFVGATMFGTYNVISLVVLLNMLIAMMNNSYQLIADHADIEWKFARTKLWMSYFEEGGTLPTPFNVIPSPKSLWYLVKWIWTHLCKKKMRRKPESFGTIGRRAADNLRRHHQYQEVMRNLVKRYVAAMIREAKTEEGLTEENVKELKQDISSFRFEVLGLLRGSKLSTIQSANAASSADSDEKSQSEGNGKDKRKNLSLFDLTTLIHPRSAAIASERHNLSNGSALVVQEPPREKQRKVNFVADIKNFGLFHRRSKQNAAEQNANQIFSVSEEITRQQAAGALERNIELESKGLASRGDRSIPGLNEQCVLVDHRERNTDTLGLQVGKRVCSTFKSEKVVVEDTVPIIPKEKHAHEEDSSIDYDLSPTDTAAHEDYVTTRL

[2] = molecular target: T2, Short transient receptor potential channel 4; assay: mouse TRPC4 channel activators, dose response, cell-based, HEK293 TRPC4/mu-opioid, Fluo-4 calcium (AID 434937); format: functional
HEK293 [3] = assay: inhibitors of LMP1-driven NF-kB reporter, dose response, cell-based, HEK293, luciferase, cherry-pick (AID 588343); format: functional; settings: Homo sapiens
[4] = molecular target: DNA dC->dU-editing enzyme APOBEC-3A (Homo sapiens, UniProt P31941); assay: Dose Response confirmation of small molecule APOBEC3A DNA Deaminase Inhibitors via a fluorescence-based single-stranded DNA deaminase assay. [Related pubchem assays (depositor defined):AID493011, AID493024]; format: functional
Sequence of DNA dC->dU-editing enzyme APOBEC-3A (P31941 whole entry): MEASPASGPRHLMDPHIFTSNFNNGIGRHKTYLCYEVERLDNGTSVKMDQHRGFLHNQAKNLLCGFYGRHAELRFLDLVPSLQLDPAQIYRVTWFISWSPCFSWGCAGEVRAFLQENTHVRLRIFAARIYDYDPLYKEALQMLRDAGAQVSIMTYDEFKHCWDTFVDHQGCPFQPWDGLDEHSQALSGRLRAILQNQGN

[5] = molecular target: DNA dC->dU-editing enzyme APOBEC-3G (Homo sapiens, UniProt Q9HC16); format: functional;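 note: Dose-response counterscreen measuring inhibition of APOBEC3G DNA deaminase activity, run while confirming APOBEC3A inhibitors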
Sequence of DNA dC->dU-editing enzyme APOBEC-3G (Q9HC16 whole entry, the tested form may be a part): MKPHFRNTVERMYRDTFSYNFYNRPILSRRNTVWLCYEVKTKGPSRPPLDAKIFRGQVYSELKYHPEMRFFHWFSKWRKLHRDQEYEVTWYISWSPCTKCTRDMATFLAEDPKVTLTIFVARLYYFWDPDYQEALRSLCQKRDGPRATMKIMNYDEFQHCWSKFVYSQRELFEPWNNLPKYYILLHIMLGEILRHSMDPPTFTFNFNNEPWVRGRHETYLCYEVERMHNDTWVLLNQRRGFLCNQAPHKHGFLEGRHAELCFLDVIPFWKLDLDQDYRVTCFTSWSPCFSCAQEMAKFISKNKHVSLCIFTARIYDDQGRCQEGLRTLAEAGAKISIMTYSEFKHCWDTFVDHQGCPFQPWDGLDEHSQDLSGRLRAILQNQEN

[6] = molecular target: Nucleotide-binding oligomerization domain-containing protein 2 (Homo sapiens, UniProt Q9HC29); assay: NOD2 signaling inhibitors, cell-based, luminescence, uHTS, HEK293 (AID 1566); format: functional
Sequence of Nucleotide-binding oligomerization domain-containing protein 2 (Q9HC29 whole entry, the tested form may be a part): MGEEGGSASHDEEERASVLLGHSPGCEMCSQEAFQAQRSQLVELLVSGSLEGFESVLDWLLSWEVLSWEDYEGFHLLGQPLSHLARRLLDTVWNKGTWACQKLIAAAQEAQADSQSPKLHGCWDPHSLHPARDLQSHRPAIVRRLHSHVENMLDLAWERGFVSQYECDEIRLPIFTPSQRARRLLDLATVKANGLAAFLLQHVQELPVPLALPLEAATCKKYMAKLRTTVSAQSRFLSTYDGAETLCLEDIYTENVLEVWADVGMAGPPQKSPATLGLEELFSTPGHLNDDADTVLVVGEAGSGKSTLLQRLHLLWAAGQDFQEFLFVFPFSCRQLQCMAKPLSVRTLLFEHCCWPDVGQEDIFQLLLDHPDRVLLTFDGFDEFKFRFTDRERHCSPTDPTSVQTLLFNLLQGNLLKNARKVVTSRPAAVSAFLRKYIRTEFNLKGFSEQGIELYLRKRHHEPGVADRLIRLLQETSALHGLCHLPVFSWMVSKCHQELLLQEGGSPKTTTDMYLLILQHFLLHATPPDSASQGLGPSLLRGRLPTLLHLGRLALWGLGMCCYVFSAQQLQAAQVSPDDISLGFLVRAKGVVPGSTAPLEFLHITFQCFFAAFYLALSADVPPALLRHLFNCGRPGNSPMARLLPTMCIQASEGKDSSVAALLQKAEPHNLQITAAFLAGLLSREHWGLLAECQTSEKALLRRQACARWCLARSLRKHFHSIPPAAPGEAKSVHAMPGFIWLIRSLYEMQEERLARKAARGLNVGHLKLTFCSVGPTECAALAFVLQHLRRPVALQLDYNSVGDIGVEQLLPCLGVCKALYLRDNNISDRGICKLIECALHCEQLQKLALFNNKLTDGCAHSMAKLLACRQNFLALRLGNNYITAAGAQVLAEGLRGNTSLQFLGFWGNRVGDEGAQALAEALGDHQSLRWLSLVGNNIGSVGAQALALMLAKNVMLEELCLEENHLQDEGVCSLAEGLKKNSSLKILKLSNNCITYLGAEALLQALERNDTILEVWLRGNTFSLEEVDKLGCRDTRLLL

HEK293 [7] = assay: cells; format: functional, cell-based; settings: Homo sapiens
HEK293 [8] = assay: cells; format: functional, cell-based; settings: Homo sapiens; remark: listed apart in the source
HEK293 [9] = assay: NOD2 signaling inhibitors in MDP-stimulated cells, cell-based, uHTS, luminescence (AID 2001); format: functional; settings: Homo sapiens
HEK293 [10] = assay: cells; format: functional, cell-based; settings: Homo sapiens; remark: listed apart in the source
HEK293 [11] = assay: NOD1 signaling inhibitors, primary screen, cell-based, luminescence, uHTS (AID 1578); format: functional; settings: Homo sapiens
[12] = HEp-2 cell cytotoxicity, dose response, cytotoxicity control for RSV inhibitor project, HTS (AID 2410); format: functional; settings: human respiratory syncytial virus
[13] = cytotoxicity toward NIH3T3 fibroblasts, dose response, counter-screen, cell-based, ATP luminescence, mouse fibroblasts (AID 2010); format: functional;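 note: cells exposed to compound for about 90 hours before reading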
[14] = inhibitors of intracellular T. cruzi replication, confirmation, NIH3T3 host cells, beta-gal luminescence (AID 2044); format: functional, cell-based;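 note: intracellular parasites grown in NIH/3T3 mouse fibroblasts as host cells; luminescent beta-galactosidase reporter signal from transgenic T. cruzi replicating inside host cells; inhibitors lower the luminescence signal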
[15] = molecular target: T3, Carboxy-terminal domain RNA polymerase II polypeptide A small phosphatase 1 (Homo sapiens, UniProt Q9GZU7); assay: inhibitors of CTDSP1, concentration-response testing, biochemical assay, absorbance-based, actives from ultra-high-throughput screening (AID 540297); format: functional
T3 sequence (Q9GZU7 whole entry): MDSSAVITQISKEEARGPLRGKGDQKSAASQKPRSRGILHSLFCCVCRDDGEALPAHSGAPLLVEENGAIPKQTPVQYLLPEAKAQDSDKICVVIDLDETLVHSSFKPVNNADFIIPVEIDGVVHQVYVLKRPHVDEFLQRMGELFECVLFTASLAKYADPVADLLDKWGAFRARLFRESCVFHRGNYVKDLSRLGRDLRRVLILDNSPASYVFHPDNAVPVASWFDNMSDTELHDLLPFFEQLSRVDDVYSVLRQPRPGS

[16] = growth suppression of PTEN-null colon cells, dose response, cell-based, HCT116 PTEN knockout (AID 1047); format: functional;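 note: HCT116 colon tumor cells with PTEN knocked out; cells exposed to compound for 60 hours before readout; potency for loss of cell viability measured by luminescence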
Vero = assay: cells; format: functional; settings: Chlorocebus sabaeus
[17] = growth suppression of beta-catenin-knockout colon cells, dose response, cell-based, HCT116, human colon tumor (AID 1045); format: functional;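 note: HCT116 colon tumor cells with beta catenin knocked out; cells exposed to compound for 60 hours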
[18] = molecular target: T4, Polyadenylate-binding protein 1 (Homo sapiens, UniProt P11940); assay: PABP1 MLLE–PAM2 binding inhibitor potency, dose response, biochemical, fluorescence polarization, FITC-PAM2 peptide (AID 602259); format: functional; settings: read-out: IC50_Mean
T4 sequence (P11940 whole entry): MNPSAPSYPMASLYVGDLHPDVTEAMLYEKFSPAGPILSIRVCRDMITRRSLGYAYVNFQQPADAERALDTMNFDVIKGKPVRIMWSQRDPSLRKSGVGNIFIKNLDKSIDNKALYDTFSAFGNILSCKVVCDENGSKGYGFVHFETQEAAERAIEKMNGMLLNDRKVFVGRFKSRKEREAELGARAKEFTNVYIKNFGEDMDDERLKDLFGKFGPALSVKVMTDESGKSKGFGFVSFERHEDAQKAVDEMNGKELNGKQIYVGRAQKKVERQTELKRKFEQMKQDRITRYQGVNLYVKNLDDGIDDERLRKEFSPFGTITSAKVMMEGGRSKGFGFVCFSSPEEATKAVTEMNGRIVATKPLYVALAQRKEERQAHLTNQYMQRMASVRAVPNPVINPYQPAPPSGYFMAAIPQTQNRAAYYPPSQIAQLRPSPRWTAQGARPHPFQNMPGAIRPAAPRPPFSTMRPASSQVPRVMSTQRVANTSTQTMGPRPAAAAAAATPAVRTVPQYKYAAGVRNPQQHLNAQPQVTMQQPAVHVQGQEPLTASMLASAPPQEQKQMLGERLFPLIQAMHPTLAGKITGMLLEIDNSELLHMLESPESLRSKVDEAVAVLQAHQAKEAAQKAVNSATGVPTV

Leucine aminopeptidase = molecular target: T5, Leucine aminopeptidase (Plasmodium falciparum 3D7, UniProt Q8IL11); assay: P. falciparum M17LAP inhibitors, primary screen, biochemical, fluorogenic H-Leu-NHMec substrate, 1536-well (AID 1619); format: functional
T5 sequence (Q8IL11 whole entry): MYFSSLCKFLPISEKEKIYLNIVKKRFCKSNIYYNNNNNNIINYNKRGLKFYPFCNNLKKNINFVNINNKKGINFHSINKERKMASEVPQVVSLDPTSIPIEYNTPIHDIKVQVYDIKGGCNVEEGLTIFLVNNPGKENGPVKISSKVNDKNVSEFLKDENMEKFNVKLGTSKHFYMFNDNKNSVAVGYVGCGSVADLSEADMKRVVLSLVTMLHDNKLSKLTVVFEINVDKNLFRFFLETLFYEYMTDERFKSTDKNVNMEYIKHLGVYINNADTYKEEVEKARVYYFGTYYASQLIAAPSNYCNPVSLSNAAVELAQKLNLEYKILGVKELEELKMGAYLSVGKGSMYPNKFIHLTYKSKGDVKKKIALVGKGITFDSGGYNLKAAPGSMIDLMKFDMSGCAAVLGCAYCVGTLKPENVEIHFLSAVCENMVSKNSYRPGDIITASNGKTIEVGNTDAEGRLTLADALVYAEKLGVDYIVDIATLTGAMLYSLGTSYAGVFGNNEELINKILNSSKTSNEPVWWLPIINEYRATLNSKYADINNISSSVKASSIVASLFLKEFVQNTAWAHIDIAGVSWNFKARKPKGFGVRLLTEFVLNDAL

[19] = molecular target: T4, Polyadenylate-binding protein 1; assay: PABP1 MLLE–PAM2 interaction inhibitors, dose response, miRNA deadenylation inhibitor project, biochemical, fluorescence polarization, Cy5-PAM2 peptide, secondary (AID 602260); format: functional; settings: read-out: IC50_Mean

## Cc1ccc(-c2n[nH]c3c2C(c2ccccc2)N(c2ccc(C(=O)O)cc2)C3=O)cc1 (stereo unspecified)
Aminopeptidase N
  IC50: 30.4 µM (active)

## Cc1ncsc1CCOC(=O)c1cccc([N+](=O)[O-])c1
[1]
  EC50: 1.68 µM (active)

## Cc1c(C(=O)N(Cc2cccs2)C2CCS(=O)(=O)C2)oc2ccccc12 (stereo unspecified)
[2]
  EC50: 2.11 µM (active)
[1]
  EC50: 1.68 µM (active)

## Cc1cc(C)n(C2CCCCC2OC(=O)c2ccccc2F)n1 (stereo unspecified)
HEK293 [3]
  AC50: > 350 µM (inactive)

## COC(=O)C1=C(C)N(Cc2ccccc2)C(NCCCCO)=N[C@H]1c1ccccc1
[4]
  IC50: 2.27 µM (active)
[5]
  IC50: 5.13 µM (active)

## Cc1cc(/C=C2\SC(=O)N(C)C2=O)c(C)n1-c1ccc(S(N)(=O)=O)cc1
[4]
  IC50: 3.12 µM (active)
[5]
  IC50: 4.58 µM (active)

## CCOC(=O)C1CCN(S(=O)(=O)c2ccc3c(c2)N(C(C)=O)CC(C)S3)CC1 (stereo unspecified)
[6]
  EC50: > 20 µM (inactive)
HEK293 [7]
  IC50: > 20 µM (inactive)
HEK293 [8]
  IC50: > 20 µM (inactive)
HEK293 [9]
  IC50: > 20 µM (inactive)
HEK293 [10]
  IC50: 19.7 µM (active)
HEK293 [11]
  EC50: 7.03 µM (active)

## CC1(C)CC(N2CCOCC2)=CC(=[N+]2CCOCC2)C1
[4]
  IC50: 2.59 µM (active)
[5]
  IC50: 2.26 µM (active)

## CC(=O)c1cccc(NS(=O)(=O)c2ccc(NC(=O)N3CCCCC3)cc2)c1
[6]
  EC50: 15.6 µM (active)
HEK293 [7]
  IC50: > 20 µM (inactive)
HEK293 [8]
  IC50: > 20 µM (inactive)
HEK293 [9]
  IC50: 11.3 µM (inactive)
HEK293 [10]
  IC50: 14.3 µM (active)
HEK293 [11]
  EC50: 3.33 µM (active)

## CCN1CCN(c2ccc(S(=O)(=O)N3CCCCC3)cc2NC(=O)Cc2ccccc2)CC1
[4]
  IC50: 3.97 µM (active)
[5]
  IC50: 5.57 µM (active)

## CSC1=NC2=C(CCCC2)C2(CCCCC2)N1
[1]
  EC50: 5.96 µM (active)

## O=C(O)c1ccc2c(c1)C1C=CCC1C(c1cc3c(cc1Br)OCO3)N2 (stereo unspecified)
Aminopeptidase N
  IC50: 11 µM (active)

## Cc1cccc(N2CCN(C(=O)CCCCCn3c(=S)[nH]c4ccc(N5CCOCC5)cc4c3=O)CC2)c1C
[6]
  EC50: 11.9 µM (active)
HEK293 [7]
  IC50: > 20 µM (inactive)
HEK293 [8]
  IC50: > 20 µM (inactive)
HEK293 [9]
  IC50: 11.9 µM (inactive)
HEK293 [10]
  IC50: > 20 µM (inactive)
[12]
  CC50: 26.4 µM (active)
HEK293 [11]
  EC50: 15.1 µM (active)
[13]
  EC50: > 60 µM (not active)
[14]
  EC50: 1.56 µM (active)

## N#C/C(=C/c1ccc(OCc2ccc(C(=O)O)cc2)cc1)C(=O)Nc1ccccc1
[15]
  IC50: 5.32 µM (active)
[4]
  IC50: 1.75 µM (active)
[5]
  IC50: 2.36 µM (active)

## O=C(CN1CCCCC1)N=Nc1c(O)[nH]c2ccccc12
[1]
  EC50: 2.99 µM (active)

## Cn1cccc1/C=C1\SC(=S)N(NC(=O)c2ccccc2O)C1=O
Aminopeptidase N
  IC50: 44.6 µM (active)

## O=[N+]([O-])CC(c1ccc(Br)cc1)c1c(O)n[nH]c1-c1ccccc1O (stereo unspecified)
[16]
  EC50: 9 µM (active)
Vero
  CC50: 14.2 µM (active)
[12]
  CC50: 10.3 µM (active)
[17]
  EC50: 6.72 µM (active)

## Cc1ccc(S(=O)(=O)CCSc2cccc(C(=O)Nc3ccccc3C(=O)O)c2)cc1
[18]
  IC50: > 66 µM (inactive)
Leucine aminopeptidase
  IC50: 9.59 µM (active)
[12]
  CC50: 13.5 µM (active)
[19]
  IC50: > 66 µM (inactive)
Aminopeptidase N
  IC50: 34.3 µM (active)

## CCn1c2ccccc2c2cc(/C=C(/C#N)C(N)=S)ccc21
HEK293 [3]
  AC50: 1.21 µM (active)
